Common to all, as to test: KRas binding assay (TR-FRET displacement of Cy5 labelled tracer)
On the technique in general: TR-FRET usually uses a lanthanide donor and a delayed reading to cut background.

In one experiment the target is T1, KRas^G12D (Homo sapiens, UniProt P01116, G12D).
T1 construct: […]; biotin (biotinylated); purchased Accelegan Inc

Another experiment concerns the target T2, KRas^G12R (Homo sapiens, UniProt P01116, G12R).
T2 construct: […]; biotin (biotinylated); purchased Accelegan Inc

Another experiment deals with T3, KRas^G12V (Homo sapiens, UniProt P01116, G12V).
T3 construct: […]; biotin (biotinylated); purchased Accelegan Inc
T3 sequence (P01116 1-169 isoform P01116-2 G12V): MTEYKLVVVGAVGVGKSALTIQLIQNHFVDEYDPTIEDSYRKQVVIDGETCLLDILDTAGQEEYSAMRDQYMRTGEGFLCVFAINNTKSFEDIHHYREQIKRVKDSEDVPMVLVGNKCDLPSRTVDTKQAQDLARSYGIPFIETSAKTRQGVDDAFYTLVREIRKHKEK

T1 sequence (P01116 1-169 isoform P01116-2 G12D): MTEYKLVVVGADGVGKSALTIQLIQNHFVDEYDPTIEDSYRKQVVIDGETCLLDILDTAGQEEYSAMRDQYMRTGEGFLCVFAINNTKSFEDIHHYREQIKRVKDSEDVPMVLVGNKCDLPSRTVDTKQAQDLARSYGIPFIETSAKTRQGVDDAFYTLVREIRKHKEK
T2 sequence (P01116 1-169 isoform P01116-2 G12R): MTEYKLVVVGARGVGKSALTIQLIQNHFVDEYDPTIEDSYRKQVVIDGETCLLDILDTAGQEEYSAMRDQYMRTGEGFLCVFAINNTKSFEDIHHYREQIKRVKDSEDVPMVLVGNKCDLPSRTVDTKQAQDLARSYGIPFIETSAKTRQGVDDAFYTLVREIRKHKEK
Protocol for KRas^G12D: (§1) The ability of a compound to bind to KRas was measured using a TR-FRET displacement assay. […] After a 60-minute incubation at room temperature, the reaction was measured using a BMG LABTECH CLARIO star Plus via TR-FRET. […] The POC values were fit to a 4-parameter IC50 equation and the IC50 value reported.
Protocol for KRas^G12R: as §1
Protocol for KRas^G12V: as §1

In general, IC50 refers to the concentration that inhibits the measured activity by half. Consider `Oc1cc(N2CCc3c(nc(OC[C@@]45CCCN4C[C@H](F)C5)nc3N3CC4CC(O)CC3C4)C2)c2c(Cl)c(F)ccc2c1` (single isomer, unassigned) [Example 77], for which the results for the IC50 on KRas^G12D, at KRas^G12R and on KRas^G12V were 740 nM, 165 nM and 188 nM, respectively.

Turning to `CCc1cccc2cccc(N3CCc4c(nc(OCC56CCCN5CCC6)nc4N4CCC(O)CC(CO)C4)C3)c12` (single isomer, unassigned) [Example 172, 1-(7-(8-ethylnaphthalen-1-yl)-2-((hexahydro-1H-pyrrolizin-7a-yl)methoxy)-5,6,7,8-tetrahydropyrido[3,4-d]pyrimidin-4-yl)-6-(hydroxymethyl)azepan-4-ol], the IC50 at KRas^G12D was 224 nM; at KRas^G12R it was 153 nM; at KRas^G12V, 153 nM.

For `CCc1cccc2cccc(N3CCc4c(nc(OCC56CCCN5CCC6)nc4N4CCC(O)CC(CO)C4)C3)c12` (single isomer, unassigned) [Example 173, 1-(7-(8-ethylnaphthalen-1-yl)-2-((hexahydro-1H-pyrrolizin-7a-yl)methoxy)-5,6,7,8-tetrahydropyrido[3,4-d]pyrimidin-4-yl)-6-(hydroxymethyl)azepan-4-ol], the IC50 at KRas^G12D was 1160 nM; on KRas^G12R it was 307 nM; on KRas^G12V, 535 nM.

As for `CCc1cccc2cccc(N3CCc4c(nc(OCC56CCCN5CCC6)nc4N4CCC(O)CC(CO)C4)C3)c12` (single isomer, unassigned) [Example 174, 1-(7-(8-ethylnaphthalen-1-yl)-2-((hexahydro-1H-pyrrolizin-7a-yl)methoxy)-5,6,7,8-tetrahydropyrido[3,4-d]pyrimidin-4-yl)-6-(hydroxymethyl)azepan-4-ol], the results for the half-inhibitory concentration (IC50) at KRas^G12D, on KRas^G12R and at KRas^G12V were 287 nM, 24 nM and 38 nM, respectively.

For `Oc1cc(N2CCc3c(nc(OC[C@@]45CCCN4C[C@H](F)C5)nc3N3CC4CC(O)CC3C4)C2)c2c(Br)c(F)ccc2c1` (single isomer, unassigned) [Example 214], the half-maximal inhibitory concentration (IC50) on KRas^G12D stood at 558 nM; on KRas^G12R, 54 nM; on KRas^G12V it was 118 nM.

In the case of `CCc1c(F)ccc2cccc(N3CCc4c(nc(OCC56CCCN5CCC6)nc4N4CCC[C@@](C)(O)C4)C3)c12` [Example 3, (R)-1-(7-(8-ethyl-7-fluoronaphthalen-1-yl)-2-((hexahydro-1H-pyrrolizin-7a-yl)methoxy)-5,6,7,8-tetrahydropyrido[3,4-d]pyrimidin-4-yl)-3-methylpiperidin-3-ol], the half-inhibitory concentration (IC50) on KRas^G12D was determined as 16 nM; on KRas^G12R it was 25 nM; at KRas^G12V, 17 nM.

`CCc1cccc2cccc(N3CCc4c(nc(OCC56CCCN5CCC6)nc4N4CCCC(C)(O)C4)C3)c12` (stereo not drawn) [Example 4, 1-(7-(8-ethylnaphthalen-1-yl)-2-((hexahydro-1H-pyrrolizin-7a-yl)methoxy)-5,6,7,8-tetrahydropyrido[3,4-d]pyrimidin-4-yl)-3-methylpiperidin-3-ol]: the IC50 at KRas^G12D is 97 nM; on KRas^G12R it was 127 nM; on KRas^G12V, 90 nM.

For `CCc1cccc2cccc(N3CCc4c(nc(OCC56CCCN5CCC6)nc4Nc4cccnc4)C3)c12` [Example 5, 7-(8-ethylnaphthalen-1-yl)-2-((hexahydro-1H-pyrrolizin-7a-yl)methoxy)-N-(pyridin-3-yl)-5,6,7,8-tetrahydropyrido[3,4-d]pyrimidin-4-amine], the IC50 on KRas^G12D is 19100 nM; at KRas^G12R, 8070 nM; on KRas^G12V, 7650 nM.

For the compound `CCc1cccc2cccc(N3CCc4c(nc(OCC56CCCN5CCC6)nc4N4CCCC(c5noc(C(F)(F)F)n5)C4)C3)c12` (stereo not drawn) [Example 163, 3-(1-(7-(8-ethylnaphthalen-1-yl)-2-((tetrahydro-1H-pyrrolizin-7a(5H)-yl)methoxy)-5,6,7,8-tetrahydropyrido[3,4-d]pyrimidin-4-yl)piperidin-3-yl)-5-(trifluoromethyl)-1,2,4-oxadiazole], the 50% inhibitory concentration (IC50) on KRas^G12D came to 7110 nM; at KRas^G12R, 3460 nM; on KRas^G12V it was 5170 nM.

These data come from patent US12421253B2 (Mirati Therapeutics, Inc., priority 2020, dated 2025).
